# Assay results from ChEMBL document CHEMBL1139096, “HeLa cells apoptosis induced by 1,7-dimethyl-1,4,7,10-tetraazacyclododecane” (2007).
# Active and inactive are the calls of the source. No cut-off for these calls is given here.
# How the values were obtained:
# HeLa [1] = test: Induction of apoptosis in human HeLa cells assessed as DNA fragmentation at 200 umol/L by electrophoresis; type: functional, cell-based
# A549 [2] = test: Growth inhibition of human A549 cells at 0.1 mM by MTT assay; type: functional; settings: read-out: GI
# HeLa [3] = test: Cell cycle arrest in human HeLa cells assessed as accumulation at G0-G1 phase at 50 umol/L after 72 hrs; type: functional
# HeLa [4] = test: Cell cycle arrest in human HeLa cells assessed as accumulation at G2/M phase at 200 umol/L after 72 hrs; type: functional
# A549 [5] = test: Growth inhibition of human A549 cells at 10 uM by MTT assay; type: functional; settings: read-out: GI
# HeLa [6] = test: Cell cycle arrest in human HeLa cells assessed as accumulation at G0-G1 phase at 300 umol/L after 72 hrs; type: functional
# HeLa [7] = test: Growth inhibition of human HeLa cells at 0.1 uM by MTT assay; type: functional
# HeLa [8] = test: Cell cycle arrest in human HeLa cells assessed as accumulation at S phase at 50 umol/L after 72 hrs; type: functional
# A549 [9] = test: Induction of apoptosis in human A549 cells at 200 umol/L by flow cytometry; type: functional
# HeLa [10] = test: Cell cycle arrest in human HeLa cells assessed as accumulation at S phase at 300 umol/L after 72 hrs; type: functional
# HeLa [11] = test: Induction of apoptosis in human HeLa cells at 300 umol/L by flow cytometry; type: functional
# HeLa [12] = test: Induction of apoptosis in human HeLa cells assessed as morphological changes at 100 umol/L; type: functional, cell-based
# A549 [13] = test: Growth inhibition of human A549 cells at 0.1 uM by MTT assay; type: functional; settings: read-out: GI
# HeLa [14] = test: Cell cycle arrest in human HeLa cells assessed as accumulation at G2/M phase at 300 umol/L after 72 hrs; type: functional
# HeLa [15] = test: Induction of apoptosis in human HeLa cells assessed as morphological changes at 50 umol/L; type: functional, cell-based
# HeLa [16] = test: Growth inhibition of human HeLa cells at 1 uM by MTT assay; type: functional; settings: read-out: GI
# A549 [17] = test: Growth inhibition of human A549 cells at 1 uM by MTT assay; type: functional; settings: read-out: GI
# HeLa [18] = test: Growth inhibition of human HeLa cells at 0.1 mM by MTT assay; type: functional; settings: read-out: GI
# HeLa [19] = test: Growth inhibition of human HeLa cells at 10 uM by MTT assay; type: functional; settings: read-out: GI
# HeLa [20] = test: Induction of apoptosis in human HeLa cells assessed as morphological changes at 200 umol/L; type: functional, cell-based
compound,measurement,setting,value
CN1CCNCCN(C)CCNCC1,Activity,HeLa [1],Active
same,inhibition of growth at 100 µM,A549 [2],53.6%
same,Activity,HeLa [3],60.5%
same,Activity,HeLa [4],25.2%
same,inhibition of growth at 10 µM,A549 [5],22.4%
same,Activity,HeLa [6],84.7%
same,growth inhibition (GI),HeLa [7],9%
same,Activity,HeLa [8],33.3%
same,Activity,A549 [9],7%
same,Activity,HeLa [10],0%
same,Activity,HeLa [11],55%
same,Activity,HeLa [12],Active
same,inhibition of growth at 0.1 µM,A549 [13],11%
same,Activity,HeLa [14],15.3%
same,Activity,HeLa [15],inactive
same,inhibition of growth at 1 µM,HeLa [16],9.8%
same,inhibition of growth at 1 µM,A549 [17],13.7%
same,inhibition of growth at 100 µM,HeLa [18],63.1%
same,inhibition of growth at 10 µM,HeLa [19],17.7%
same,Activity,HeLa [20],Active
